Consider 53 compounds from PubChem BioAssay AID449725 (University of Pittsburgh Molecular Library Screening Center, 2010).

The structures appear in SMILES notation. Active and inactive are the calls of the source. The rule behind the calls is not given here.

The assay has as its system IMR-90 human lung fibroblast viability counter screen. As to the kind of experiment: IMR-90 fibroblast viability reduction, dose response, cytotoxicity control, cell-based, IC50 (AID 449725).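 Note: 48 hour compound exposure before the viability read.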
For the compound `COc1cccc(NC(=O)Cn2sc3ccccc3c2=O)c1`, the IC50 (in general, the point on the concentration scale where inhibition reaches its midpoint) was 8.77 µM.

Regarding `O=c1ccsn1-c1ccccc1`, the IC50 was 5.79 µM. The result for `COc1ccc(C(=O)Nc2ccccc2C(=O)O)cc1` reads > 25 µM (inactive); that for `COc1ccc(C(=O)O)c(NC(=O)c2ccc(Cl)cc2)c1`, > 25 µM (inactive).

Consider `CCCCCCCC(=O)Nc1cc(Cl)ccc1C(=O)O`, for which the IC50 was > 25 µM (inactive). The result for `CN(C)c1ccc(NC(=O)Cn2sc3ccccc3c2=O)cc1` reads 18.4 µM; that for `O=c1c2ccccc2sn1-c1cccc(F)c1`, 7.9 µM; that for `O=C(Cn1sc2ccccc2c1=O)NC1CCCCC1`, 12.8 µM. In the case of `O=C(Nc1cc(Cl)ccc1C(=O)O)c1ccc2c(c1)OCO2` it was > 25 µM (inactive); in that of `O=c1c2ccccc2sn1-c1ccc(Cl)cc1Cl`, > 25 µM (inactive); in that of `CC(=O)Nc1ccc2c(=O)n(-c3ccccc3)sc2c1`, > 25 µM (inactive).

Consider `O=C(CCn1sc2ccccc2c1=O)Nc1ccccc1`, for which the IC50 is 9.92 µM. In the case of `COc1ccc(C(=O)Nc2cc(I)ccc2C(=O)O)cc1` it was > 25 µM (inactive); in that of `COc1ccc(C(=O)NC(CC(=O)O)c2ccc(Cl)cc2)cc1` (stereo not drawn), > 25 µM (inactive). Consider `Cn1c2ccccc2c(=O)n1-c1ccccc1`, for which the IC50 was > 25 µM (inactive). In the case of `COc1ccc(CC(=O)Nc2cc(Cl)ccc2C(=O)O)cc1` it was > 25 µM (inactive); in that of `COc1ccc(C(=O)Nc2ccc(Cl)cc2C(=O)O)cc1`, > 25 µM (inactive); in that of `COc1cc(C(=O)Nc2cc(Cl)ccc2C(=O)O)cc(OC)c1OC`, > 25 µM (inactive). On to `O=C(Cn1sc2ccccc2c1=O)Nc1ccc(Br)cc1`, for which the IC50 was > 25 µM (inactive). In the case of `CCc1ccc(C(=O)Nc2cc(Cl)ccc2C(=O)O)cc1` it was > 25 µM (inactive); in that of `O=C1c2ccccc2S(=O)N1c1ccc(Cl)cc1` (stereo not drawn), > 25 µM (inactive). For the compound `O=C(Nc1cc(Cl)ccc1C(=O)O)c1ccc(C(F)(F)F)cc1`, the IC50 is > 25 µM (inactive). In the case of `N#Cc1ccc(NC(=O)Cn2sc3ccccc3c2=O)cc1` it was 19.7 µM; in that of `O=C(Nc1cc(Cl)ccc1C(=O)O)c1ccncc1`, > 25 µM (inactive); in that of `CCCCCCC(=O)Nc1cc(Cl)ccc1C(=O)O`, > 25 µM (inactive). The result for `O=c1c(O)c(-c2ccc(O)c(O)c2)oc2cc(O)cc(O)c12` reads > 25 µM (inactive); that for `O=C(O)c1ccc(Cl)cc1NC(=O)c1coc2ccccc12`, > 25 µM (inactive). In the case of `O=C(Cn1sc2cc(F)ccc2c1=O)Nc1ccccc1` it was 14.8 µM. `CC(C)(C)c1ccc(C(=O)Nc2cc(Cl)c(F)cc2C(=O)O)cc1`: the IC50 was > 25 µM (inactive). The result for `O=C(Cn1sc2ccccc2c1=O)Nc1ccccc1Br` reads > 25 µM (inactive); that for `COc1ccc(-c2cc3ccccc3[nH]2)cc1`, > 25 µM (inactive); that for `Cc1ccccc1NC(=O)Cn1sc2ccccc2c1=O`, 7.37 µM.

On to `O=C(Cn1sc2ccccc2c1=O)Nc1ccccc1`, for which the IC50 is 6.93 µM. The result for `COc1ccc(C(=O)Nc2cc(Cl)ccc2C(N)=O)cc1` reads > 25 µM (inactive). Consider `CCC(C)(C)c1ccc(C(=O)Nc2cc(Cl)ccc2C(=O)O)cc1`, for which the IC50 was > 25 µM (inactive). The result for `O=C(Nc1cc(Cl)ccc1C(=O)O)c1ccc(Cc2ccccc2)cc1` reads > 25 µM (inactive).

Consider `CN(C)c1ccc(C(=O)Nc2cc(Cl)ccc2C(=O)O)cc1`, for which the IC50 was > 25 µM (inactive). The result for `COc1ccc(C(=O)Nc2cc(Cl)ccc2-c2noc(=O)[nH]2)cc1` reads > 25 µM (inactive); that for `O=C(Nc1cc(Cl)ccc1C(=O)O)c1ccc(-c2ccccc2)cc1`, > 25 µM (inactive); that for `O=c1c2ccc(Br)cc2sn1-c1ccccc1`, > 25 µM (inactive). The result for `COc1cccc(CC(=O)Nc2cc(Cl)ccc2C(=O)O)c1` reads > 25 µM (inactive); that for `O=C(Nc1cc(Cl)ccc1C(=O)O)c1ccc(C2CCC2)cc1`, > 25 µM (inactive); that for `O=c1c2cc(C(F)(F)F)ccc2sn1-c1ccccc1`, 12 µM. The result for `O=c1c2cc(N3CCOCC3)ccc2sn1-c1ccccc1` reads 20.9 µM; that for `N#Cc1ccc(Oc2ccc3c(c2)B(O)OC3)cc1`, > 25 µM (inactive); that for `O=C(Nc1cc(Cl)ccc1C(=O)O)c1ccccc1`, > 25 µM (inactive).

In the case of `CC(=O)Nc1cc(Cl)ccc1C(=O)O`, the IC50 was > 25 µM (inactive). The result for `COc1ccc(C(=O)Nc2cc(Cl)ccc2C(=O)O)cc1OC` reads > 25 µM (inactive); that for `O=C(Nc1cc(Cl)ccc1C(=O)O)c1ccc(-c2cccs2)cc1`, > 25 µM (inactive). In the case of `COc1ccc(C(=O)Nc2cc(Cl)ccc2C(=O)O)cc1` it was > 25 µM (inactive); in that of `Cc1cc(C(C#N)c2ccc(Cl)cc2)c(Cl)cc1NC(=O)c1cc(I)cc(I)c1O` (stereo not drawn), > 25 µM (inactive). With `CC(C)(C)c1ccc(C(=O)Nc2cc(Cl)c(Br)cc2C(=O)O)cc1`, the IC50 was > 25 µM (inactive). The result for `O=c1c2ccccc2sn1-c1ccccc1` reads 1.45 µM.
